Columns and labels:
Staphylococcus aureus [1] = test: Antibacterial activity against Staphylococcus aureus ATCC 29213 assessed as reduction in microbial growth incubated for 20 hrs under aerobic condition by CLSI based broth microdilution method; format: functional
Escherichia coli [2] = test: Antibacterial activity against Escherichia coli ATCC 25922 assessed as reduction in microbial growth incubated for 20 hrs under aerobic condition by CLSI based broth microdilution method; format: functional
Staphylococcus aureus [3] = test: Antibacterial activity against Staphylococcus aureus ATCC 29213 hemB SCV assessed as reduction in microbial growth incubated for 20 hrs under aerobic condition by CLSI based broth microdilution method; format: functional
Escherichia coli [4] = test: Antibacterial activity against Escherichia coli MC4100 harbouring lptD mutant assessed as reduction in bacterial growth by CLSI based broth microdilution method; format: functional
[5] = Inhibition of Escherichia coli ATCC 25922 ATP synthase activity preincubated for 30 mins followed by NADH/ADP addition and measured after 60 mins by luciferin/luciferase luminescence assay
Escherichia coli [6] = test: Antibacterial activity against Escherichia coli MC4100 assessed as reduction in bacterial growth by CLSI based broth microdilution method; format: functional
Escherichia coli [7] = test: Antibacterial activity against Escherichia coli MC4100 harbouring acrAB mutant assessed as reduction in bacterial growth by CLSI based broth microdilution method; format: functional

Structure (SMILES)	MIC (Staphylococcus aureus [1]) [µg/mL]	MIC (Escherichia coli [2]) [µg/mL]	MIC (Staphylococcus aureus [3]) [µg/mL]	MIC (Escherichia coli [4]) [µg/mL]	IC50 [5] [µM]	MIC (Escherichia coli [6]) [µg/mL]	MIC (Escherichia coli [7]) [µg/mL]
C[C@H]1CC[C@]2(NC1)O[C@H]1C[C@H]3[C@@H]4CC[C@H]5CC(NC[C@H](N)CCc6ccccc6)CC[C@]5(C)[C@H]4CC[C@]3(C)[C@H]1[C@@H]2C (stereo not given in full)	4	32	–	–	–	–	–
C[C@H]1CC[C@]2(NC1)O[C@H]1C[C@H]3[C@@H]4CC[C@H]5CC(NC[C@@H](N)C(c6ccccc6)c6ccccc6)CC[C@]5(C)[C@H]4CC[C@]3(C)[C@H]1[C@@H]2C (mixture of isomers)	4	> 64	–	–	–	–	–
C[C@H]1CC[C@]2(NC1)O[C@H]1C[C@H]3[C@@H]4CC[C@H]5CC(NC[C@@H](N)Cc6ccc([N+](=O)[O-])cc6)CC[C@]5(C)[C@H]4CC[C@]3(C)[C@H]1[C@@H]2C (mixture of isomers)	2	64	–	–	–	–	–
C[C@H]1CC[C@]2(NC1)O[C@H]1C[C@H]3[C@@H]4CC[C@H]5CC(NCc6ccc(O)cc6)CC[C@]5(C)[C@H]4CC[C@]3(C)[C@H]1[C@@H]2C (mixture of isomers)	8	> 128	–	–	–	–	–
C[C@H]1CC[C@]2(NC1)O[C@H]1C[C@H]3[C@@H]4CC[C@H]5CC(NC[C@@H](N)Cc6ccccc6Br)CC[C@]5(C)[C@H]4CC[C@]3(C)[C@H]1[C@@H]2C (mixture of isomers)	4	32	–	–	–	–	–
C[C@H]1CC[C@]2(NC1)O[C@H]1C[C@H]3[C@@H]4CC[C@H]5CC(NC[C@H](N)Cc6ccccc6)CC[C@]5(C)[C@H]4CC[C@]3(C)[C@H]1[C@@H]2C (mixture of isomers)	4	32	–	–	–	–	–
C[C@H]1CC[C@]2(NC1)O[C@H]1C[C@H]3[C@@H]4CC[C@H]5CC(NC[C@@H](N)Cc6ccccc6C(F)(F)F)CC[C@]5(C)[C@H]4CC[C@]3(C)[C@H]1[C@@H]2C (mixture of isomers)	2	32	0.5	–	–	–	–
C[C@H]1CC[C@]2(NC1)O[C@H]1C[C@H]3[C@@H]4CC[C@H]5CC(NCc6cn(C)cn6)CC[C@]5(C)[C@H]4CC[C@]3(C)[C@H]1[C@@H]2C (mixture of isomers)	32	> 128	–	–	–	–	–
COC(=O)CNC1CC[C@@]2(C)[C@@H](CC[C@@H]3[C@@H]2CC[C@]2(C)[C@@H]4[C@H](C[C@@H]32)O[C@@]2(CC[C@H](C)CN2)[C@H]4C)C1 (mixture of isomers)	> 128	> 128	–	–	–	–	–
C[C@H]1CC[C@]2(NC1)O[C@H]1C[C@H]3[C@@H]4CC[C@H]5CC(NCCN6CCNC6=O)CC[C@]5(C)[C@H]4CC[C@]3(C)[C@H]1[C@@H]2C (mixture of isomers)	64	> 128	–	–	–	–	–
C[C@H]1CC[C@]2(NC1)O[C@H]1C[C@H]3[C@@H]4CC[C@H]5CC(NCCN6CCOCC6)CC[C@]5(C)[C@H]4CC[C@]3(C)[C@H]1[C@@H]2C (mixture of isomers)	64	> 128	–	64	6.5	> 128	128
C[C@H]1CC[C@]2(NC1)O[C@H]1C[C@H]3[C@@H]4CC[C@H]5CC(NCCO)CC[C@]5(C)[C@H]4CC[C@]3(C)[C@H]1[C@@H]2C (mixture of isomers)	> 128	> 128	–	–	–	–	–
C[C@H]1CC[C@]2(NC1)O[C@H]1C[C@H]3[C@@H]4CC[C@H]5CC(NC[C@@H](C)N)CC[C@]5(C)[C@H]4CC[C@]3(C)[C@H]1[C@@H]2C (mixture of isomers)	4	64	–	–	–	–	–
CCCC(N)(CCC)CNC1CC[C@@]2(C)[C@@H](CC[C@@H]3[C@@H]2CC[C@]2(C)[C@@H]4[C@H](C[C@@H]32)O[C@@]2(CC[C@H](C)CN2)[C@H]4C)C1 (mixture of isomers)	8	> 128	–	–	–	–	–
C[C@H]1CC[C@]2(NC1)O[C@H]1C[C@H]3[C@@H]4CC[C@H]5CC(N[C@@H]6CCNC6)CC[C@]5(C)[C@H]4CC[C@]3(C)[C@H]1[C@@H]2C (mixture of isomers)	32	64	–	32	4.7	64	32
C[C@H]1CC[C@]2(NC1)O[C@H]1C[C@H]3[C@@H]4CC[C@H]5CC(NC[C@@H](O)CO)CC[C@]5(C)[C@H]4CC[C@]3(C)[C@H]1[C@@H]2C (mixture of isomers)	64	> 128	–	–	–	–	–

Structure (SMILES)	MIC (Staphylococcus aureus [1]) [µg/mL]	MIC (Escherichia coli [2]) [µg/mL]	MIC (Staphylococcus aureus [3]) [µg/mL]	MIC (Escherichia coli [4]) [µg/mL]	IC50 [5] [µM]	MIC (Escherichia coli [6]) [µg/mL]	MIC (Escherichia coli [7]) [µg/mL]
C[C@H]1CC[C@]2(NC1)O[C@H]1C[C@H]3[C@@H]4CC[C@H]5CC(NC[C@@H](N)Cc6c[nH]cn6)CC[C@]5(C)[C@H]4CC[C@]3(C)[C@H]1[C@@H]2C (mixture of isomers)	8	32	–	–	–	–	–
C[C@H]1CC[C@]2(NC1)O[C@H]1C[C@H]3[C@@H]4CC[C@H]5CC(NCc6ccco6)CC[C@]5(C)[C@H]4CC[C@]3(C)[C@H]1[C@@H]2C (mixture of isomers)	32	> 128	–	–	–	–	–
C[C@H]1CC[C@]2(NC1)O[C@H]1C[C@H]3[C@@H]4CC[C@H]5CC(NC[C@@H](N)Cc6ccc(Cl)cc6Cl)CC[C@]5(C)[C@H]4CC[C@]3(C)[C@H]1[C@@H]2C (mixture of isomers)	2	8	≤ 0.25	–	–	–	–
C[C@H]1CC[C@]2(NC1)O[C@H]1C[C@H]3[C@@H]4CC[C@H]5CC(NCCNC(=N)N)CC[C@]5(C)[C@H]4CC[C@]3(C)[C@H]1[C@@H]2C (mixture of isomers)	8	64	–	–	–	–	–
C[C@H]1CC[C@]2(NC1)O[C@H]1C[C@H]3[C@@H]4CC[C@H]5CC(NC[C@@H](N)Cc6ccc(F)cc6)CC[C@]5(C)[C@H]4CC[C@]3(C)[C@H]1[C@@H]2C (mixture of isomers)	4	32	≤ 0.25	–	–	–	–
C[C@H]1CC[C@]2(NC1)O[C@H]1C[C@H]3[C@@H]4CC[C@H]5CC(NC[C@@H](N)Cc6cn(C)c7ccccc67)CC[C@]5(C)[C@H]4CC[C@]3(C)[C@H]1[C@@H]2C (mixture of isomers)	2	8	–	–	–	–	–
C[C@H]1CC[C@]2(NC1)O[C@H]1C[C@H]3[C@@H]4CC[C@H]5CC(N[C@H]6CCCC[C@@H]6N)CC[C@]5(C)[C@H]4CC[C@]3(C)[C@H]1[C@@H]2C (mixture of isomers)	8	> 128	–	–	–	–	–
C[C@H]1CC[C@]2(NC1)O[C@H]1C[C@H]3[C@@H]4CC[C@H]5CC(NC[C@@H](N)Cc6cccc(C(F)(F)F)c6)CC[C@]5(C)[C@H]4CC[C@]3(C)[C@H]1[C@@H]2C (mixture of isomers)	5	8	2	–	–	–	–
C[C@H]1CC[C@]2(NC1)O[C@H]1C[C@H]3[C@@H]4CC[C@H]5CC(NCCNS(C)(=O)=O)CC[C@]5(C)[C@H]4CC[C@]3(C)[C@H]1[C@@H]2C (mixture of isomers)	32	> 128	–	–	–	–	–
C[C@H]1CC[C@]2(NC1)O[C@H]1C[C@H]3[C@@H]4CC[C@H]5CC(NCCN6CCCC6)CC[C@]5(C)[C@H]4CC[C@]3(C)[C@H]1[C@@H]2C (mixture of isomers)	–	64	–	0.5	0.9	64	8
C[C@H]1CC[C@]2(NC1)O[C@H]1C[C@H]3[C@@H]4CC[C@H]5CC(NC[C@@H](N)Cc6ccc(C(F)(F)F)cc6)CC[C@]5(C)[C@H]4CC[C@]3(C)[C@H]1[C@@H]2C (mixture of isomers)	2	8	1	–	–	–	–
C[C@H]1CC[C@]2(NC1)O[C@H]1C[C@H]3[C@@H]4CC[C@H]5CC(NC[C@@H](N)Cc6cccnc6)CC[C@]5(C)[C@H]4CC[C@]3(C)[C@H]1[C@@H]2C (mixture of isomers)	16	> 128	–	–	–	–	–
C[C@H]1CC[C@]2(NC1)O[C@H]1C[C@H]3[C@@H]4CC[C@H]5CC(NC[C@@H](N)Cc6cccc(Br)c6)CC[C@]5(C)[C@H]4CC[C@]3(C)[C@H]1[C@@H]2C (mixture of isomers)	2	8	–	–	–	–	–
C[C@H]1CC[C@]2(NC1)O[C@H]1C[C@H]3[C@@H]4CC[C@H]5CC(NCc6ccccn6)CC[C@]5(C)[C@H]4CC[C@]3(C)[C@H]1[C@@H]2C (mixture of isomers)	> 128	> 128	–	–	–	–	–
C[C@H]1CC[C@]2(NC1)O[C@H]1C[C@H]3[C@@H]4CC[C@H]5CC(NC[C@@H](N)CC6CCCCC6)CC[C@]5(C)[C@H]4CC[C@]3(C)[C@H]1[C@@H]2C (mixture of isomers)	4	16	–	–	–	–	–
C[C@H]1CC[C@]2(NC1)O[C@H]1C[C@H]3[C@@H]4CC[C@H]5CC(NCCN(C)C)CC[C@]5(C)[C@H]4CC[C@]3(C)[C@H]1[C@@H]2C (mixture of isomers)	8	128	–	–	–	–	–

From ChEMBL document CHEMBL5634158, “From garden to lab: C-3 chemical modifications of tomatidine unveil broad-spectrum ATP synthase inhibitors to combat bacterial resistance” (Eur J Med Chem, 2023)
